Series [1] can be described thus: Solubility/clarity and freeze-thaw of 1.0% olopatadine in native guar with HPCD (Table 4-1). The format is physicochemical. Particulars: 0.17% native guar, approximately 5% or more HPCD, physiologic pH of approximately 7. As for the experimental part: (§1) Various concentrations of HPCD were used in the formulations. The formulations were filled in glass scintillation vials and in LDPE Drop-Tainers. The formulations were evaluated for clarity using UV light.

The nature of series [2]: Solubility/clarity and freeze-thaw of 0.5% and 1.0% olopatadine in native guar with HPCD (Table 5-1). Particulars: physiologic pH of 7; for Olopatadine solubility: 0.17% native guar. The format is physicochemical. On the procedure: as §1
Formulation Compositions Containing 0.5% and 1.0% Olopatadine in 0.17% Native Guar and 1% to 6% Hydroxypropyl-Beta-Cyclodextrin (HPCD).

In series [3] the test system is late phase allergy symptoms. The series is described as follows: Efficacy of olopatadine aqueous ophthalmic solutions in reducing late phase allergy symptoms. The format is in vivo. The source says:
Olopatadine is a known compound that can be obtained by the methods disclosed in U.S. Pat. No. 5,116,863, the entire contents of which are hereby incorporated by reference in the present specification for all purposes. Olopatadine is an antihistamine (as well as anticholinergic) and mast cell stabilizer. Olopatadine is a selective histamine H1 antagonist. When included, the composition of the present invention contains at least 0.1%, more typically at least 0.33% or 0.55%, even more typically at least 0.65% or 0.67%, still more typically at least 0.7%, but typically no greater than 1.5% more typically no greater than 1.0%, still more typically no greater than 0.8%, possibly no greater than 0.75% and even possibly no greater than 0.72% or 0.6% of olopatadine where concentrations of olopatadine typically represent concentrations of olopatadine in free base form if the olopatadine is added to the composition as a salt. […] Advantageously, for the composition of the present invention, lower concentrations (e.g., at least 0.50 w/v %, at least 0.55 w/v %, or at least 0.60 w/v %) may show significant improvements and even possibly statistically significant improvements in reducing late phase allergy symptoms.

Results on one molecule are retold here after patent publication US20140364422A1, “Aqueous Pharmaceutical Composition With Enhanced Stability” (NOVARTIS AG, priority 2012, published 2014).

SMILES strings stand for the structures.

`CN(C)CC/C=C1/c2ccccc2COc2ccc(CC(=O)O)cc21` [Olopatadine, (Z)-11-(3-dimethylaminopropylidene)-6,11-dihydro-dibenz-[b,e]oxepin-2-acetic acid] came in with an Olopatadine concentration solubilized in series [1] of 1%. Also, the Olopatadine solubility in series [2] (HPCD at or above approximately 2%) is recorded as 0.5%; in series [2] (HPCD at or above approximately 4%), 1%. Besides, the results for the “concentration of cyclodextrin that can solubilize Olopatadine” value in series [2] (0.5% Olopatadine together with 0.17% guar) and in series [2] (0.6% Olopatadine together with 0.17% guar) were “approximately 2%” and roughly 4%, respectively. Besides, the “olopatadine concentration at which efficacy in reducing late phase allergy symptoms begins to show improvement” value in series [3] is on record as “greater than 0.5 w/v %”. Also, the “olopatadine concentration at which statistically significant improvements in reducing late phase allergy symptoms begin” value in series [3] (about 0.7 w/v % and above) is recorded as “at least 0.7 w/v %”.
